Patent publication US20240374578A1, “USE OF MEDICINE FOR REDUCING IRON CONTENT IN BRAIN IN PREPARATION OF DRUG FOR TREATING AND/OR PREVENTING NEUROPSYCHIATRIC DISEASES” (SOOCHOW UNIVERSITY, priority 2022, published 2024)

Test system: morphine addiction in mice
Test: Morphine conditioned place preference scoring of mice
Assay type: in vivo, C57BL/6J mice
Conditions: 6 h before morphine 20 mg/kg/day i.p., 7 days, vs morphine group

SMILES	preference score on morphine-paired side (Deferiprone 13 mg/mL, 1 μL into dorsal hippocampus, FIG. 5)	preference score on morphine-paired side (Vadadustat 10 mg/kg/day i.p., FIG. 4)
Cc1c(O)c(=O)ccn1C [Deferiprone, 3-hydroxy-1,2-dimethyl-4-(1H)-pyridone]	significantly reduced	
O=C(O)CNC(=O)c1ncc(-c2cccc(Cl)c2)cc1O [Vadadustat]		significantly reduced
